{"source": "patent US10723706B2", "about": "“Perk inhibitors and uses thereof in treating diseases associated with aggregation-prone proteins” (Ramot at Tel-Aviv University Ltd., priority 2016, dated 2020)", "key": {"STHdhQ111/111 cells": {"system": "STHdhQ111/111 cells", "experiment": "Rescue from UPR-induced cell death (tunicamycin), PI cell cycle FACS, sub-G0/G1 fraction", "assay_type": "cell-based", "protocol": "STHdhQ7/7 and STHdhQ111/111 cells were grown as described in Leitman et al. [PLoS One 2014, 9(3):e90803].\nAfter the indicated treatment times in full medium or in DMEM without serum, cells were incubated with propidium iodide (PI) solution ([…]) and read by flow cytometry as described in Leitman et al. [PLoS One 2014, 9(3):e90803]. Cells in sub-G0/G1 were counted as apoptotic/dead cells.\nThe activity of the novel inhibitors, compared to A4, in preventing cytotoxicity induced by pathogenic Htt, was then tested. A stable murine striatal cell line expressing full-length polyQ-expanded Htt, STHdhQ^111/111, was used."}, "cells": {"system": "cells", "experiment": "Intrinsic cytotoxicity on cells", "assay_type": "cell-based"}, "[1]": {"experiment": "Pharmacokinetics and blood brain barrier penetration, LC/MS/MS", "assay_type": "in vivo, mouse", "settings": "WT mice, 10 mg/kg IP", "protocol": "FIG. 5 Analysis of Pharmacokinetics (PK) and blood brain barrier (BBB) penetration was done in WT mice using a method based on LC/MS/MS.\nPharmacokinetics (PK) and blood brain barrier (BBB) penetration were analyzed in WT mice."}, "R6/2 transgenic mice [2]": {"system": "R6/2 transgenic mice", "experiment": "Blood glucose levels in R6/2 HD model and WT mice", "assay_type": "in vivo, mouse", "protocol": "Animals were treated for 4 weeks starting at 4 weeks of age with 1 mg/ml MK-28 or with vehicle (DMSO/PEG400 1:1), delivered using Alzet pumps. […] N=13 TG, 13 TG+MK28, 16 WT, 15 WT+MK28, 15 None.\nThe HD mouse model used was the R6/2 transgenic mice model B6CBA-R6/2 (CAG 160) Jackson Lab USA. R6/2 mice express only the exon 1 of the human Htt gene, including 150 CAG repeats driven by the human Htt promoter directly influencing the transgene expression levels and thereby the development of HD-like pathology. Out of all the existing mouse models of HD, the R6/2 mouse is one that develops symptoms the most rapidly and has the most widespread occurrence of Htt inclusions in the brain. Furthermore, these lines are the most widely used in therapeutic trials. In these animals, the initial signs of motor symptoms commence around 3 weeks of age. […] While R6/2 mice are initially hyperactive, they gradually reduce their motor activity and become hypoactive around 8 weeks of age. Their motor function and coordination progressively deteriorate, and can be detected as a reduction in the time they can stay on a rotating rod, the so-called Rotarod. […]\nAlzet pumps were implanted at 4 weeks of age and MK-28 was administered at 1 mg/kg with continuous dosing for 28 days. […] Vocalization tests were also performed and survival was assessed. […]"}, "R6/2 transgenic mice [3]": {"system": "R6/2 transgenic mice", "experiment": "Rotarod test in R6/2 HD model mice", "assay_type": "in vivo, mouse", "settings": "1 mg/kg continuous for 28 days", "protocol": "Motor activity was assessed by the rotarod test using the San Diego Instrument, Rotor-Rod (San Diego Instruments, CA, USA) (0-25 RPM). R6/2 mice and controls were tested every week after pump transplantation. Each test consisted of 3 consecutive measurements of 5 minutes on 4 rpm, 60 minutes of rest, 3 times 0-40 rpm. The latency to fall was recorded.\nFor the therapeutic assessment of MK-28 delivery, Alzet pumps model 1004, with a rate of 0.11 μl/hour and 28 days compound delivery were used. Five groups of mice were studied: (1) Transgenic (TG) treated with MK-28, (2) TG without treatment (pumps with vehicle), (3) Wild-type (WT) treated with MK-28, (4) WT without treatment (pumps with vehicle), (5) WT without pumps.\nAlzet pumps were implanted at 4 weeks of age and MK-28 was administered at 1 mg/kg with continuous dosing for 28 days. This concentration is in a typical clinical dose range. […] Vocalization tests were also performed and survival was assessed. […]\nRotarod analysis was performed by assessing the maximum performance of each animal during three consecutive trials at different time points. The analysis evaluated the motor behavior of animals starting one week after the pump implantation (equivalent to the mice fifth week of life) and ending by seven weeks after first MK-28 delivery."}, "R6/2 transgenic mice [4]": {"system": "R6/2 transgenic mice", "experiment": "Combined motor phenotype (ledge, clasping, gait, kyphosis) in R6/2 mice", "assay_type": "in vivo, mouse", "description": "Hind-limb clasping behavior was scored on a scale from 0 to 3: 0=normal; 1=clasps hind limbs within 30 seconds of being suspended in the air; 2=clasps hind limbs within 5 seconds but recovers quickly when released after 30 seconds; 3=clasps hind limbs within 5 seconds and has difficulty recovering when released after 30 seconds.\nThe ledge test is a direct measure of coordination. Mice were lifted from the cage and placed on the cage's ledge. Mice will typically walk along the ledge and attempt to descend back into the cage. Walking along the ledge without losing its balance is assigned a score of 0. If the mouse loses its footing while walking along the ledge, it receives a score of 1. […] If it falls off the ledge, or nearly so, while walking or attempting to lower itself, or shakes and refuses to move at all despite encouragement, it receives a score of 3.\nGait is a measure of coordination and muscle function. […]\nIn parallel to the Rotarod analysis motor function and disease severity were evaluated using a simple composite phenotype that includes the combined analysis of hind limb clasping, ledge walk, gait and kyphosis [Guyenet et al., J Vis Exp 2010, (39):1787]. This test has the ability to effectively discriminate between affected and non-affected individuals, while also quantifying the temporal progression of neurodegenerative disease phenotypes such as HD."}, "R6/2 transgenic mice [5]": {"system": "R6/2 transgenic mice", "experiment": "Ultrasonic vocalization of R6/2 mice", "assay_type": "in vivo, mouse", "protocol": "Mice were treated as described in FIGS. 7 and 8. Transgenic mice receiving (MK-28 TG+) or vehicle (TG) were analyzed for vocalization as number of syllables in 5 minutes intervals. (n=3-4, p=0.059).\nAlzet pumps were implanted at 4 weeks of age and MK-28 was administered at 1 mg/kg with continuous dosing for 28 days. This concentration is in a typical clinical dose range. The mice's motor function and coordination were tested by Rotarod, and limb clasping, ledge, gait and kyphosis were also tested. Vocalization tests were also performed and survival was assessed. Tests were performed in two independent blind experiments.\nVocalization was evaluated, as it reflects motor and cognitive abilities."}}, "note": "“Also recorded” adds a separate entry of the source."}
{"molecule": "CN(/N=C\\c1ccc(O)c(O)c1)c1nc(-c2ccccc2)cc(-c2ccccc2)n1", "note": "[Compound 3, 2-{N-methyl-N′-(3,4-dihydroxybenzylidene)hydrazinyl}-4,6-diphenylpyrimidine]", "values": [{"measurement": "rescue from UPR-induced cell death (cytotoxicity)", "setting": "STHdhQ111/111 cells; Tun for 48 hours", "result": "significantly more potent than A4"}, {"measurement": "fold lower IC50 than A4 for inhibition of cytotoxicity", "setting": "STHdhQ111/111 cells; additional ER stress caused by tunicamycin", "result": "> 3", "unit": "fold"}, {"measurement": "intrinsic cytotoxicity on cells", "setting": "cells", "result": "neither MPGL1 nor MK-28 exhibited intrinsic cytotoxicity"}, {"measurement": "BBB penetration, peak brain concentration", "setting": "[1]; brain", "result": 57, "unit": "ng/mL"}, {"measurement": "T1/2 in brain", "setting": "[1]; brain", "result": 80, "unit": "min"}, {"measurement": "time of peak brain concentration", "setting": "[1]; brain", "result": 40, "unit": "min"}, {"measurement": "T1/2 in plasma", "setting": "[1]; plasma", "result": 30, "unit": "min"}, {"measurement": "peak plasma concentration", "setting": "[1]; plasma", "result": 105, "unit": "ng/mL"}, {"measurement": "time of peak plasma concentration", "setting": "[1]; plasma", "result": 40, "unit": "min"}, {"measurement": "Kp at 40 minutes", "setting": "[1]; mouse, brain, read-out: BBB penetration peak as percent of the concentration in plasma", "result": "> 0.5"}, {"measurement": "blood glucose levels in TG mice", "setting": "R6/2 transgenic mice [2]; R6/2 TG mice, 4 weeks treatment by Alzet pump from 4 weeks of age", "result": "reduced"}, {"measurement": "blood glucose levels in WT mice", "setting": "R6/2 transgenic mice [2]; WT mice, 4 weeks treatment by Alzet pump, listed as MK-28", "result": "no effect; also recorded: did not affect glucose levels"}, {"measurement": "Rotarod motor performance of TG mice versus untreated TG", "setting": "R6/2 transgenic mice [3]; R6/2 TG mice, p<0.05, listed as MK-28, 1 mg/kg", "result": "significant improvement in general motor performance; also recorded: significant improvement in motor function"}, {"measurement": "Rotarod motor performance of WT mice", "setting": "R6/2 transgenic mice [3]; WT mice", "result": "no compromised motor performance"}, {"measurement": "combined phenotype score of TG mice versus untreated TG", "setting": "R6/2 transgenic mice [4]; R6/2 TG mice, from week 6 after pump implantation, p<0.05, listed as MK-28", "result": "lower scores; also recorded: significant improvement"}, {"measurement": "combined phenotype of WT mice", "setting": "R6/2 transgenic mice [4]; WT mice, p>0.05", "result": "no detrimental effect"}, {"measurement": "vocalization, number of syllables", "setting": "R6/2 transgenic mice [5]; R6/2 TG mice treated with MK-28, n=3-4, p=0.059", "result": 13.75, "unit": "syllables in 5 minutes"}, {"measurement": "vocalization effect versus untreated R6/2", "setting": "R6/2 transgenic mice [5]; R6/2 TG mice, listed as MK-28", "result": "three fold difference; also recorded: improved"}]}
